A word on the IC50: it is the concentration needed to halve the response being measured.

Structures are written as SMILES.

The target in experiment [1] is T1, Human mGluR5 (Homo sapiens, UniProt P41594).
T1 construct: expressed in transfected cells; host or cells: HEK293
Kind of experiment: Fluorescence-based Ca2+ mobilization assay. The following applies: HEK293 cell line permanently overexpressing mGluR5, Ca2+ level change induced by L-glutamate at EC80 concentration, FLIPR Tetra. As to the method: Experimental Example 2: Fluorescence-based Ca^2+ mobilization assay
In order to measure the activity of the antagonist on the mGluR5, an experiment was carried out to check the change in the intracellular Ca^2+ level using the HEK293 cell line permanently overexpressing the mGluR5. The cells in the cell culture medium were aliquoted into a 384-well plate coated with poly-D-lysine and cultured in a 37°C incubator supplied with 5% CO2. The next day, the medium was removed and a dye loading buffer-in which a reagent capable of measuring Ca^2+ was dissolved-was added, and then incubated at 37°C for 60 minutes. The test compounds were dissolved in 100% DMSO at a final concentration of 10 mM to make a stock solution. The starting concentration of 10 µM was prepared from the stock solution, followed by serial dilutions to prepare working solutions (test compound working solutions). The test compound working solutions were added to the cells that were incubated in the dye loading buffer, which were maintained for 30 minutes at room temperature in a light-shielding state before measurement. The Ca^2+ level change induced by L-glutamate at EC80 concentration was measured for 2 minutes using FLIPR Tetra (MDS Analytical Technologies). The fluorescent Ca^2+ signal values in the presence of the test compounds were normalized to the fluorescent signal elicited by EC80 concentration of L-glutamate as 100% and that elicited by vehicle as 0% to estimate % inhibition of the test compounds. […]
Background: Calcium flux is commonly read through the fluorescence of an indicator in the cells.

Experiment [2] concerns the target T2, human HDAC6 enzyme (Homo sapiens, UniProt Q9UBN7).
T2 sequence (Q9UBN7 1-1215): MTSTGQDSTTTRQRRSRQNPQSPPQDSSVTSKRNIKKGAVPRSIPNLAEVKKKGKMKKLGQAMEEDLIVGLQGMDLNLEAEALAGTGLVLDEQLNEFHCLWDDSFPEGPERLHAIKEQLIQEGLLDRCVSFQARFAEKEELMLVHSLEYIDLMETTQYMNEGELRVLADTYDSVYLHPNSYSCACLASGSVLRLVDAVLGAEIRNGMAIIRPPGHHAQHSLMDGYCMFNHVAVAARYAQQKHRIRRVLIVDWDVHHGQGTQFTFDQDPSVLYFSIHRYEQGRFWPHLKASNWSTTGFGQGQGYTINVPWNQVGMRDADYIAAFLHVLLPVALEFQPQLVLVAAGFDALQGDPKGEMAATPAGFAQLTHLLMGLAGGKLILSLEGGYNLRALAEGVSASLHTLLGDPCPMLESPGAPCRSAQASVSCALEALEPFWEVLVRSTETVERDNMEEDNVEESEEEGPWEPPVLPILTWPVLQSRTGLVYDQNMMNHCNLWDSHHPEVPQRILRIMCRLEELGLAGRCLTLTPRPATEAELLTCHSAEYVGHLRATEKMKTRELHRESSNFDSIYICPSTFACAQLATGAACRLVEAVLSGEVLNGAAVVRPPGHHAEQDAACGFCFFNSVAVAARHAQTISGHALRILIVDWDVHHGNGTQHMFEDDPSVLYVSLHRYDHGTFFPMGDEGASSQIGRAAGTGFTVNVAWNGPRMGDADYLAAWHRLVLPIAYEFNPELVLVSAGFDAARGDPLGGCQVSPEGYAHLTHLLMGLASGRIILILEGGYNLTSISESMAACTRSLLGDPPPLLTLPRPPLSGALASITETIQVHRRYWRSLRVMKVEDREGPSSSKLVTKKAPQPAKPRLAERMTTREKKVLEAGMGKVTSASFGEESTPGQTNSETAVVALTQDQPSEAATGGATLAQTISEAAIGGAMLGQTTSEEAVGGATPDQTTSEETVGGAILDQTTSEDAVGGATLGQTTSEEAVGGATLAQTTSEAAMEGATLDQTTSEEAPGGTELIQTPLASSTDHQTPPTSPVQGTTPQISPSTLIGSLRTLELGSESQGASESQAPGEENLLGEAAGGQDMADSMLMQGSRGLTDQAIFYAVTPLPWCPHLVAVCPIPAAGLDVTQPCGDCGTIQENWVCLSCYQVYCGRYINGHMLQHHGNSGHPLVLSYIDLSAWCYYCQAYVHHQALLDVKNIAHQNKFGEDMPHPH
Briefly: Fluorescence-based enzyme activity assay. In kind it is biochemical. The following applies: substrate with fluorescent peptide of p53 residues 379-382, 30°C for 1 hour. On the procedure:
Experimental Example 1: Fluorescence-based enzyme activity assay
In order to measure the inhibitory effect of the compounds on the activity of histone deacetylase 6 (HDAC6), an enzyme activity assay was performed to evaluate the enzyme activity by reacting the human HDAC6 enzyme with a substrate to which a fluorescent peptide of p53 residues 379-382 was attached. The test compounds were dissolved in 100% DMSO at a concentration of 10 mM to prepare a stock solution. A starting concentration of 30 µM was prepared from the stock solution, followed by 1/3 serial dilutions to prepare the test buffer solution. Trichostatin A (TSA)-which is the reference compound used to confirm the validity of the experiment-was serially diluted by 1/3 with the test buffer solution, starting from the highest concentration of 1 µM. To react the test compounds and TSA prepared in the test buffer with the HDAC6 enzyme, they were dispensed into a 96-well black plate and spin-down of the plate was performed. Then, the reaction was carried out at room temperature for 10 minutes. After 10 minutes, the substrate was dispensed, and the plate was sealed. The reaction was carried out at 30°C for 1 hour under light-blocking conditions. Fluorescence values were measured using a plate reader (wavelength: excitation/emission = 360/460 nm). The fluorescence measurements were normalized to the HDAC6 enzyme-treated group as 100% and the untreated group as 0%, respectively. […]

T1 sequence (P41594 21-1212): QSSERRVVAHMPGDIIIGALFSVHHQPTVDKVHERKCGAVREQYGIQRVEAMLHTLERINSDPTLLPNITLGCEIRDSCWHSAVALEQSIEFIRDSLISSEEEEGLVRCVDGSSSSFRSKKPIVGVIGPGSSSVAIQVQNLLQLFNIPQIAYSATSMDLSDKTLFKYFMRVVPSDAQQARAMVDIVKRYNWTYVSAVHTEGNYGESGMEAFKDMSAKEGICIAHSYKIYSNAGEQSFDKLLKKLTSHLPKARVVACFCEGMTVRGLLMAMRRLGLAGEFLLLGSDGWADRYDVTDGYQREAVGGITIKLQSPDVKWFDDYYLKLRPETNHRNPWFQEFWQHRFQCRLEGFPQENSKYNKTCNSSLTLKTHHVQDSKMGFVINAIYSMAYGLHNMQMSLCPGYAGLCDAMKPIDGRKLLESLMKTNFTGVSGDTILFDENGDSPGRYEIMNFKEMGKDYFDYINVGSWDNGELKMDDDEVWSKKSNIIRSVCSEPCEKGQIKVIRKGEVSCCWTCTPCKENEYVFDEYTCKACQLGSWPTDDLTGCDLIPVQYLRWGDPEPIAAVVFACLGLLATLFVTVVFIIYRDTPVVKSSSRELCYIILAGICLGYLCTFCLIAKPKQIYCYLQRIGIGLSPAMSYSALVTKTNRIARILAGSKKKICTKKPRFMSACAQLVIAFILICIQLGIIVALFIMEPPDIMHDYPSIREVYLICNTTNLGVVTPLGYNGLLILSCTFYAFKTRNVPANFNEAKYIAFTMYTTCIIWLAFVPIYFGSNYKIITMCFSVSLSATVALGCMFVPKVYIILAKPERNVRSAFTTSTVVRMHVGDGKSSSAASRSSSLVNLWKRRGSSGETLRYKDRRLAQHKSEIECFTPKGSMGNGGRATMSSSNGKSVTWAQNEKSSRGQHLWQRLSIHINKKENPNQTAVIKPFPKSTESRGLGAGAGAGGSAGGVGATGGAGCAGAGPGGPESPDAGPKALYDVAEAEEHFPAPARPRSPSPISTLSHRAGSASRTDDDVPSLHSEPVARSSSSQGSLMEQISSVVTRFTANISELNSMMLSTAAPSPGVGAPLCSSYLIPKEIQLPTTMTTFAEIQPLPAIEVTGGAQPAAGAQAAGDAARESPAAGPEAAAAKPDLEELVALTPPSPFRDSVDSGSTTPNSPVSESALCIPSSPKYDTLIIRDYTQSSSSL

On to `Cc1ccc(C#CCn2ccc(-c3nnc(C(F)F)o3)cc2=O)cc1` [Example 17, 4-(5-(difluoromethyl)-1,3,4-oxadiazol-2-yl)-1-(3-(p-tolyl)prop-2-yn-1-yl)pyridin-2(1H)-one], for which the IC50 in experiment [1] lay within 1000 to 2000 nM; in experiment [2], 100 to 500 nM.
The corresponding values for `Cc1cccc(C#CCn2ccc(-c3nnc(C(F)F)o3)cc2=O)c1` [Example 18, 4-(5-(difluoromethyl)-1,3,4-oxadiazol-2-yl)-1-(3-(m-tolyl)prop-2-yn-1-yl)pyridin-2(1H)-one] are 1000 to 2000 nM and below 100 nM.
For `O=c1cc(-c2nnc(C(F)F)o2)ccn1CC#Cc1cccc(C(F)(F)F)c1` [Example 19, 4-(5-(difluoromethyl)-1,3,4-oxadiazol-2-yl)-1-(3-(3-(trifluoromethyl)phenyl)prop-2-yn-1-yl)pyridin-2(1H)-one], in that order: 1000 to 2000 nM and 100 to 500 nM.
For `O=c1cc(-c2nnc(C(F)F)o2)ccn1CC#Cc1cccc(OC(F)(F)F)c1` [Example 20, 4-(5-(difluoromethyl)-1,3,4-oxadiazol-2-yl)-1-(3-(3-(trifluoromethoxy)phenyl)prop-2-yn-1-yl)pyridin-2(1H)-one], in that order: 1000 to 2000 nM and 100 to 500 nM.
Turning to `O=c1cc(-c2nnc(C(F)F)o2)ccn1CC#Cc1ccnc(Cl)c1` [Example 23, 1-(3-(2-chloropyridin-4-yl)prop-2-yn-1-yl)-4-(5-(difluoromethyl)-1,3,4-oxadiazol-2-yl)pyridin-2(1H)-one], the IC50 was 1000 to 2000 nM in experiment [1] and below 100 nM in experiment [2].
As for `Cc1cccc(C#CCn2ccc(-c3nnc(C(F)F)o3)cc2=O)n1` [Example 24, 4-(5-(difluoromethyl)-1,3,4-oxadiazol-2-yl)-1-(3-(6-methylpyridin-2-yl)prop-2-yn-1-yl)pyridin-2(1H)-one], the IC50 in experiment [1] was 500 to 1000 nM; in experiment [2], below 100 nM.
Consider `O=c1cc(-c2nnc(C(F)F)o2)ccn1CC#Cc1cccc(Br)c1` [Example 25, 1-(3-(3-bromophenyl)prop-2-yn-1-yl)-4-(5-(difluoromethyl)-1,3,4-oxadiazol-2-yl)pyridin-2(1H)-one], for which the half-maximal inhibitory concentration (IC50) in experiment [1] is 500 to 1000 nM; in experiment [2], 100 to 500 nM.
The corresponding values for `O=c1cc(-c2nnc(C(F)F)o2)ccn1CC#Cc1cccc(OC(F)F)c1` [Example 27, 1-(3-(3-(difluoromethoxy)phenyl)prop-2-yn-1-yl)-4-(5-(difluoromethyl)-1,3,4-oxadiazol-2-yl)pyridin-2(1H)-one] are 1000 to 2000 nM and below 100 nM.
The corresponding values for `O=c1cc(-c2nnc(C(F)(F)F)o2)ccn1CC#Cc1cccc(Cl)c1` [Example 28, 1-(3-(3-chlorophenyl)prop-2-yn-1-yl)-4-(5-(trifluoromethyl)-1,3,4-oxadiazol-2-yl)pyridin-2(1H)-one] are 1000 to 2000 nM and 500 to 1000 nM.
Take `O=c1cc(-c2noc(C(F)F)n2)ccn1CC#Cc1cccc(Cl)c1` [Example 30, 1-(3-(3-chlorophenyl)prop-2-yn-1-yl)-4-(5-(difluoromethyl)-1,2,4-oxadiazol-3-yl)pyridin-2(1H)-one]: the concentration for half-maximal inhibition (IC50) in experiment [1] and in experiment [2] was 500 to 1000 nM throughout.
Regarding `N#Cc1cccc(C#CCn2ccc(-c3nnc(C(F)F)o3)cc2=O)c1` [Example 31, 3-(3-(4-(5-(difluoromethyl)-1,3,4-oxadiazol-2-yl)-2-oxopyridin-1(2H)-yl)prop-1-yn-1-yl)benzonitrile], the concentration for half-maximal inhibition (IC50) in experiment [1] was 500 to 1000 nM; in experiment [2], below 100 nM.
For `O=c1cc(-c2nnc(C(F)F)o2)ccn1CC#Cc1cc(Cl)ccc1F` [Example 36, 1-(3-(5-chloro-2-fluorophenyl)prop-2-yn-1-yl)-4-(5-(difluoromethyl)-1,3,4-oxadiazol-2-yl)pyridin-2(1H)-one], in that order: 1000 to 2000 nM and 100 to 500 nM.
The corresponding values for `Cc1cc(-c2nnc(C(F)F)o2)cc(=O)n1CC#Cc1cccc(Cl)c1` [Example 45, 1-(3-(3-chlorophenyl)prop-2-yn-1-yl)-4-(5-(difluoromethyl)-1,3,4-oxadiazol-2-yl)-6-methylpyridin-2(1H)-one] are 500 to 1000 nM and 100 to 500 nM.

The values above are taken from patent EP4685143A1 (Vivozon,Inc., priority 2023, dated 2024).
